Assay results published in patent US20090047742A1 (priority 2005, published 2009).

Assays:
iBMK cells [1] = assay: MTT assay, viability of iBMK cells; assay type: cell-based, mouse; settings: for sensitivity to TNF-α-induced cell death (MTT assay): TNF-α/CHX (0.05 μg/ml)
Protocol: 3-(4,5-dimethylthiazol-2-yl)-2,5-diphenyltetrazolium bromide (MTT) assay to measure the viability of iBMK cells treated with paclitaxel, CHX, or both mouse TNF-α and CHX was performed as previously described (Ioffe, M. L., et al., Prostate 61: 243-247. (2004)).
To test if apoptosis mediated by general translation inhibition was dependent on specific BH3-only proteins, the apoptotic response of puma^−/−, bim^−/−, noxa^−/−, nbk/bik^−/− iBMK cells to translation inhibition was tested with CHX. In addition to W2, D3, X2 or K1 cells, puma^−/−, bim^−/−, noxa^−/− or nbk/bik^−/− cells were treated with increasing concentration of CHX (0.05, 0.5, 1.0, 5.0 and 10.0 μg/ml) for 24 hours to induce translation inhibition and viability was assessed. […] In contrast, when D3, K1 (FIG. 6B) and nbk/bik^−/− (FIG. 6C) cells were treated with CHX, cell viability remained high. […] In contrast, D3 cells were resistant to cell death induced by TNF-α and paclitaxel (FIGS. 6D and E). […] Furthermore, NBK/BIK was not required for TNF-α-mediated apoptosis (FIG. 6D) which signals through tBID (Li, H., et al., Cell 94: 491-501 (1998); Luo, X., et al., Cell 94: 481-490 (1998)), nor was NBK/BIK required for apoptosis induced by taxanes (FIG. 6E) which is dependent on BIM (Bouillet, P., et al., Science 286: 1735-1738 (1999); Tan, T. T., et al., Cancer Cell 7: 227-238. (2005)). These findings support the role for specific BH3-only proteins controlling the response to discrete apoptotic stimuli.

iBMK cells [2] = settings: cited from earlier work
caspase-3, PARP = assay: Western blot of active caspase-3 and PARP in T-Rex-293 lysates; assay type: cell-based, human
Protocol: Western blot analysis and immunofluorescence were performed as previously described (Perez, D., and White, E. J. Cell Biol. 141: 1255-1266 (1998); Perez, D., and White, E. Mol. Cell 6: 53-63 (2000)). The term “Western blot” refers to a method for identifying proteins in a complex mixture; proteins are separated electrophoretically in a gel medium; transferred from the gel to a protein binding sheet or membrane; and the sheet or membrane containing the separated proteins exposed to specific antibodies which bind to, locate, and enable visualization of protein(s) of interest. T-Rex-293 (mazF/pcDNA3) and T-Rex-293 (mazF/mazE) cells were harvested at 0, 24, 48 and 72 hr post-treatment with tetracycline or staurosporine by scraping and centrifugation. All cell pellets were lysed in 2× Laemmli buffer. Cell lysates were subjected to electrophoresis on a 15% SDS-PAGE gel and then transferred onto an Immobilon-P membrane (Millipore, Bedford, Mass.). The blot was incubated with following antibody: anti-active caspase-3 rabbit polyclonal antibody (Cell Signaling Technology, Beverly, Mass.), anti-BAX, anti-BAK rabbit polyclonal antibody (NT) (Upstate Biotechnology Inc., Lake Placid, N.Y.), anti-BID goat polyclonal antibody (R&D Systems, Inc, Minneapolis, Minn.), anti-Bim rabbit polyclonal antibody (Alexis Biochemical, San Diego, Calif.), anti-BCL-2 hamster monoclonal antibody (PharMingen, San Diego, Calif.), anti-BCL-XL mouse monoclonal antibody (Trevigen, Gaithersburg, Md.), anti-MCL-1 rabbit polyclonal antibody (Stressgen Biotechnologies, Victoria, British Columbia, Canada), anti-PARP mouse monoclonal antibody (PharMingen, San Diego, Calif.), anti-PUMA rabbit polyclonal antibody (Nelson, D. A., et al., Genes Dev. 18: 2095-2107 (2004)), anti-E1A monoclonal antibody; anti-actin monoclonal antibody (Oncogene Research Products); and anti-Xpress monoclonal antibody (Invitrogen). An antibody directed to human NBK/BIK was generated by expression of a GST-tagged human NBK/BIK fusion protein encoding an N-terminal 78-amino acid region in bacteria and immunization of rabbits (Cocalico). Western Blots were developed with horseradish peroxidase-conjugated secondary antibodies using the ECL system (Amersham-Pharmacia Biotech, Piscataway, N.J.).

[3] = tested on: human GAPDH and β-actin mRNA; assay: real-time RT-PCR quantification of mRNA levels in T-Rex-293 cells; assay type: cell-based; settings: cells expressing both MazE and MazF
Protocol: Northern blot analysis and real-time PCR (RT-PCR) was preformed as previously described (Zhang, Y., et al., Mol. Cell 12: 913-923 (2003); Cuconati, A., et al., Genes Dev. 17: 2922-2932 (2003)). Total RNA from tetracycline-treated (0, 24, 48 and 72 hr) or untreated (0, 24, 48 and 72 hr) T-Rex-293 (mazF/pcDNA3) and T-Rex-293 (mazF/mazE) cells for were isolated through the use of Trizol Reagent (Gibco, Carlsbad, Calif.). For Northern blot analysis, 10 μg of total RNA from each condition was subjected to formaldehyde-agarose gel electrophoresis followed by transfer onto GeneScreen Plus membrane (NEN Life Science Products, Boston, Mass.). The blot was hybridized with ^32P-labeled human GAPDH or β-actin cDNA. One hundred ng of total RNA was subjected to real time RT-PCR with the Taqman EZ-RT PCR kit (PE Applied Biosystems, Lincoln Centre Drive Foster City, Calif.) using recommended conditions provided by the vendor. […] Reactions were carried out in triplicate and the relative amount of human GAPDH and β-actin mRNA was calculated from the difference in fluorescence signal in the 24-, 48- and 72-hr samples compared with the corresponding 0 hr sample.

T-Rex-293 cells [4] = assay: FACS analysis of propidium iodide labeling (sub-G1 peak); assay type: cell-based, human; settings: T-Rex-293 (mazF/mazE), MazE co-expressed with MazF, 72 hours of induction
Protocol: T-Rex-293 (mazF/pcDNA3) cells and T-Rex-293 (mazF/mazE) cells treated with tetracycline for 0, 24, 48 and 72 hr were harvested by trypsinization, pelleted by centrifugation and resuspended in PBS. The cells were fixed with ice-cold 70% ethanol for 30 min and stained with propidium iodide (10 μg/ml) and RNase A (100 μg/ml) overnight. The cells were analyzed on a Becton Dickinson FACSCalibur system (San Jose, Calif.).

T-Rex-293 cells [5] = assay: trypan blue exclusion viability; assay type: cell-based, human; settings: T-Rex-293 (mazF/mazE), Tet-treated
Protocol: The viability of T-Rex-293 cells was determined by trypan blue exclusion as previously described (Degenhardt, K., et al., J. Biol. Chem. 277: 14127-14134 (2002)). T-Rex-293 (mazF/pcDNA3) and T-Rex-293 (mazF/mazE) cells were cultured for 24 hr before tetracycline treatment and then incubated for 0, 24, 48 and 72 hr at 37° C. in the presence or absence of 10 μg/ml tetracycline. After treatment, cells were collected by centrifugation of the supernatant plus adherent cells, which were harvested by trypsinization. Cells were resuspended in 500 μl of fresh medium containing 0.1% trypan blue solution (Sigma, St. Louis, Mo.) and then counted on a hemocytometer to assess the number of dead blue cells and the total number of cells counted. As a control for apoptotic cell death, T-Rex-293 (mazF/mazE) cells were treated with 1 μM staurosporine (Sigma, St. Louis, Mo.) for same time periods concurrently with tetracycline treatment.

T-Rex-293 cells [6] = assay: phase contrast morphology / cytopathic effect; assay type: cell-based, human; settings: MazE co-expressed with MazF, T-Rex-293
T-Rex-293 cells [7] = assay: 35S-methionine metabolic labeling (protein synthesis); assay type: cell-based, human; settings: T-Rex-293 (mazF/mazE), Tet-treated
Protocol: T-Rex-293 (mazF/pcDNA3) and T-Rex-293 (mazF/mazE) cells were incubated for 0, 24 and 48 hr in tetracycline-containing complete DMEM followed by incubation for 1 hr in fresh methionine-free DMEM containing 10 μCi/ml ^35S-methionine. The cells then were washed with PBS twice and lysed in 2× Laemmli buffer. The cell lysate was subjected to SDS-PAGE followed by autoradiography and coomassie blue stain. Signal intensity was measured by Phosphoimager STORM 860 (Molecular Dynamics, Sunnyvale, Calif.).

iBMK cells [8] = assay: β-galactosidase assay, viability of iBMK cells co-expressing LacZ; assay type: cell-based, mouse; settings: MazE transiently co-expressed with MazF in W2 and X2 cells
Protocol: β-galactosidase assays to determine the viability of iBMK cells co-expressing LacZ and MazF were performed as previously described (Han, J., Sabbatini, P., and White, E. Mol. Cell. Biol. 16: 5857-5864 (1996)). W2, D3, X2 and K1 co-transfected with pcDNA6/His/LacZ and pcDNA4/TO/mazF or pcDNA3 for 48 hr were fixed in 1% glutaraldehyde and then stained with 0.2% X-gal solution at 37° C. for 24 hr. β-Galactosidase positive blue cells and the total number of cells (approximately 200 cells) were independently counted on a 6-cm diameter dish.

[9] = tested on: human GAPDH and β-actin mRNA; assay: Northern blot analysis of cellular mRNA in T-Rex-293 cells; assay type: cell-based; settings: co-expression of MazE with MazF, T-Rex-293 (mazF/mazE), throughout time course of induction
Protocol: Northern blot analysis and real-time PCR (RT-PCR) was preformed as previously described (Zhang, Y., et al., Mol. Cell 12: 913-923 (2003); Cuconati, A., et al., Genes Dev. 17: 2922-2932 (2003)). Total RNA from tetracycline-treated (0, 24, 48 and 72 hr) or untreated (0, 24, 48 and 72 hr) T-Rex-293 (mazF/pcDNA3) and T-Rex-293 (mazF/mazE) cells for were isolated through the use of Trizol Reagent (Gibco, Carlsbad, Calif.). For Northern blot analysis, 10 μg of total RNA from each condition was subjected to formaldehyde-agarose gel electrophoresis followed by transfer onto GeneScreen Plus membrane (NEN Life Science Products, Boston, Mass.). The blot was hybridized with ^32P-labeled human GAPDH or β-actin cDNA. One hundred ng of total RNA was subjected to real time RT-PCR with the Taqman EZ-RT PCR kit (PE Applied Biosystems, Lincoln Centre Drive Foster City, Calif.) using recommended conditions provided by the vendor. Primers to analyze the level of human GAPDH mRNA were obtained from Applied Biosystems, and a probe for GAPDH was supplied with 5′ linkage to the reporter dye 2, 7-dimethoxy-4, 5-dichloro-6-carboxy-fluoroecein (JOE), and 3′ linkage to the quencher 6-carboxy-tetramethylrhodamine (TAMURA). β-actin primer sequences were 5′-[…]-3′ and 5′-[…]-3′. β-actin probe sequence was FAM-5′-[…] TTCC-3′-TAMURA. Reactions were carried out in triplicate and the relative amount of human GAPDH and β-actin mRNA was calculated from the difference in fluorescence signal in the 24-, 48- and 72-hr samples compared with the corresponding 0 hr sample.
To assess cellular mRNA levels, total RNA was isolated from whole cells of Tet-treated or -untreated T-Rex-293 cells and subjected to Northern blot analysis using human GAPDH and β-actin cDNA probes. […] Labeled single-stranded DNA fragments complementary to the specific mRNA being sought then are hybridized to the bound mRNA and the label detected by suitable means. […]

[10] = W2 and three independent nbk/bik−/− iBMK cell lines

Molecule: CC(=O)O[C@H]1C(=O)[C@@]2(C)[C@H]([C@H](OC(=O)c3ccccc3)[C@]3(O)C[C@H](OC(=O)[C@H](O)[C@@H](NC(=O)c4ccccc4)c4ccccc4)C(C)=C1C3(C)C)[C@]1(OC(C)=O)CO[C@@H]1C[C@@H]2O [paclitaxel]
- sensitivity to paclitaxel-induced cell death (MTT assay) (iBMK cells [1]; D3 cells): resistant
- sensitivity to paclitaxel-induced cell death (MTT assay) (iBMK cells [1]; [10]): clearly sensitive

Molecule: TNF-α
- sensitivity to TNF-α-induced cell death (MTT assay) (iBMK cells [1]; D3 cells): resistant
- sensitivity to TNF-α-induced cell death (MTT assay) (iBMK cells [1]; [10]): clearly sensitive
- TNF-α-induced apoptosis (iBMK cells [2]; D3 iBMK cells): resistant
- apoptosis induction (iBMK cells [2]; W2, X2, and K1 iBMK cells): induces apoptosis

Molecule: CN[C@@H]1C[C@H]2O[C@@](C)([C@@H]1OC)n1c3ccccc3c3c4c(c5c6ccccc6n2c5c31)C(=O)NC4 [staurosporine, reference compound]
- active caspase-3 (Western blot) (caspase-3, PARP; extracts from T-Rex-293 (mazF/mazE) cells treated with 1 μM staurosporine): detected

Molecule: C[C@@H]1C[C@@H]([C@H](O)CC2CC(=O)NC(=O)C2)C(=O)[C@@H](C)C1 [CHX, cycloheximide]
- cell viability (MTT assay) (iBMK cells [1]; D3, K1 and nbk/bik−/− cells, CHX 0.05-10.0 μg/ml for 24 hours): remained high
- survival (MTT assay) (iBMK cells [1]; W2, X2, puma−/−, bim−/− and noxa−/− cells, CHX 0.05-10.0 μg/ml for 24 hours): decreased in a dose-dependent manner

B1: MazE: labile E. coli antitoxin that antagonizes the endoribonuclease activity of MazF; expressed from pcDNA3/mazE together with MazF (protein, UniProt P0AE72 1-82, looked up)
Antitoxin MazE: MIHSSVKRWGNSPAVRIPATLMQALNLNIDDEVKIDLVDGKLIIEPVRKEPVFTLAELVNDITPENLHENIDWGEPKDKEVW
- levels of both GAPDH and β-actin mRNAs (real-time RT-PCR) [3]: constant levels
- sub-G1 peak (T-Rex-293 cells [4]): 11.4%
- effect of co-expression of MazE with MazF on viability (trypan blue exclusion) (T-Rex-293 cells [5]): conferred resistance to MazF-mediated killing
- cell number and morphology (T-Rex-293 cells [6]): maintained
- activation of caspase-3 (Western blot) (caspase-3, PARP; co-expression of MazE with MazF, Tet-treated T-Rex-293 (mazF/mazE)): inhibited
- cleaved PARP (Western blot) (caspase-3, PARP; extracts of cells expressing both MazE and MazF): not present
- effect of MazE co-expression on MazF inhibition of protein synthesis (35S-methionine incorporation) (T-Rex-293 cells [7]): clearly prevented the inhibitory effect of MazF
- effect of MazE on MazF-induced cell death (β-galactosidase assay) (iBMK cells [8]): significantly repressed MazF-induced cell death
- levels of both GAPDH and β-actin mRNAs (Northern blot) [9]: maintained
